# According to patent publication US11400106B2, “Methods for inhibiting microbe growth” (priority 2018, dated 2022):
# Like-named read-outs stand apart in the source and are kept apart here.
# Key:
# E. coli = test: microbe, parasite or virus in culture; format: cell-based, Escherichia coli; conditions: for MIC: Escherichia coli
# Procedure: (§1) In the following experiments, bacterial cells were cultured in 96-well microtiter plates in cation-adjusted Mueller-Hinton Broth (MHB) for 18 h at 37° C. The main strains used were E. coli (K-12 BW25113) (placed in stationary incubator) and S. aureus (Newman Strain) (incubated at 250 r.p.m). Knockout strains (ΔtolcC and ΔychM) were used from the Keio knockout collection (Baba et al., Construction of Escherichia coli K-12 in-frame, single-gene knockout mutants: the Keio collection. Mol Syst Biol 2, 2006 0008, doi:10.1038/msb4100050 (2006)). For MIC determination and checkerboard analyses, Clinical & Laboratory Standards Institute (CLSI) protocol was used. […] DiSC3 loading of S. aureus cells was performed as previously described (Farha et al., Collapsing the proton motive force to identify synergistic combinations against Staphylococcus aureus. Chemistry & biology 20, 1168-1178, doi:10.1016/j.chembiol.2013.07.006 (2013)). CCCP concentration of 20 μM was used. pH adjustments were made by addition of HCl or NaOH. INT assay and ATP bioluminescence assays were performed as previously described (Farha et al., Collapsing the proton motive force to identify synergistic combinations against Staphylococcus aureus. Chemistry & biology 20, 1168-1178, doi:10.1016/j.chembiol.2013.07.006 (2013)). For chemical-genomic studies, the Keio library was grown overnight in cation-adjusted MHB broth, in 384-well plates. From these, treatment plates (25 mM sodium bicarbonate, or a sterile water control) were inoculated and grown for 15 hours at 37° C., in a stationary incubator. Data was normalized according to Mangat et al (Mangat et al., Rank ordering plate data facilitates data visualization and normalization in high-throughput screening. J Biomol Screen 19, 1314-1320, doi:10.1177/1087057114534298 (2014)), with gene products and GO terms mined from EcoCyc. The GFP promoter library (Keseler et al., EcoCyc: fusing model organism databases with systems biology. Nucleic Acids Res 41, D605-612, doi:10.1093/nar/gks1027 (2013)) was grown for 18 hours at ambient temperature with the same inoculation strategy as with the Keio collection. The analysis pipeline of Zaslaver et al (Zaslaver et al., A comprehensive library of fluorescent transcriptional reporters for Escherichia coli. Nat Methods 3, 623-628, doi:10.1038/nmeth895 (2006)) was used to generate maps of promoter activity, from which lists of promoters with increased or decreased activity were compiled.
# (§2) Fold enhancement in MICs in the media supplemented with sodium bicarbonate is represented by a positive fold, whereas suppression of activity is represented by a negative fold.
# (§3) The effect of sodium bicarbonate on the activity of additional antibacterial agents was investigated. Clinical isolates of various bacteria were obtained from the ATCC and the IHMA.
# (§4) The effect of sodium bicarbonate on the activity of cationic antiseptic agents was investigated. Clinical isolates of various bacteria were obtained from the ATCC and the IHMA.
# S. aureus = test: microbe, parasite or virus in culture; conditions: for MIC: Staphylococcus aureus, 18 h, read-out: MIC, S. aureus, MHB−
# Procedure: as §1, §2, §3, §4
# [1] = 18 h, MHB in the absence of sodium bicarbonate, read-out: MIC, E. coli, MHB−
# [2] = 18 h, antibiotic agents, MHB in the absence of sodium bicarbonate, read-out: MIC, E. coli, MHB−
# [3] = antibiotic agents, MHB in the absence of sodium bicarbonate
# [4] = antibiotic agents, fold shift in MIC, MHB− vs MHB+
SMILES,MIC (E. coli; [1]) [µg/mL],"MIC, S. aureus, MHB+ (S. aureus)",MIC (S. aureus) [µg/mL],"MIC, E. coli, MHB+ (E. coli)",MIC (E. coli; [2]) [µg/mL],other results
CC[C@H]1OC(=O)[C@H](C)[C@@H](O[C@H]2C[C@@](C)(OC)[C@@H](O)[C@H](C)O2)[C@H](C)[C@@H](O[C@@H]2O[C@H](C)C[C@H](N(C)C)[C@H]2O)[C@](C)(O)C[C@@H](C)[C@@H]2N[C@@H](COCCOC)O[C@H]([C@H]2C)[C@]1(C)O [Dirithromycin],128,0.5,4,,,"MIC (E. coli; E. coli, no salt, pH adjusted to 7.4, read-out: MIC of dirithromycin, control): 128 µg/mL"
C[C@H]1c2cccc(O)c2C(=O)C2=C(O)[C@]3(O)C(=O)C(C(N)=O)=C(O)[C@@H](N(C)C)[C@@H]3[C@@H](O)[C@@H]21 [Doxycycline],1,2,0.125,,,
CCn1cc(C(=O)O)c(=O)c2cc(F)c(N3CCNCC3)nc21 [Enoxacin],0.25,2,1,,,
O=CN(O)CCCP(=O)(O)O [Fosmidomycin],16,>64,> 64,,,
CC(=O)O[C@H]1C[C@@]2(C)[C@@H](C[C@@H](O)[C@H]3[C@@]4(C)CC[C@@H](O)[C@@H](C)[C@@H]4CC[C@@]32C)/C1=C(\CCC=C(C)C)C(=O)O [Fusidic acid],,2 μg of antimicrobial agent/mL of buffer,0.5,>128 μg of antimicrobial agent/mL of buffer,> 128,
COc1c(N2CCNC(C)C2)c(F)cc2c(=O)c(C(=O)O)cn(C3CC3)c12 (stereo not shown) [Gatifloxacin],,8 μg of antimicrobial agent/mL of buffer,4,4 μg of antimicrobial agent/mL of buffer,16,
CCCCCCCCCCCCCCCC[N+](C)(C)C.[Br-] [Hexadecyltrimethylammonium bromide],,0.25 μg of antimicrobial agent/mL of buffer,,8 μg of antimicrobial agent/mL of buffer,,"MIC, E. coli, MHB (E. coli): 32 μg of antimicrobial agent/mL of buffer; MIC, S. aureus, MHB (S. aureus): 0.5 μg of antimicrobial agent/mL of buffer"
CN[C@H]1C[C@@H](N)[C@H](O)[C@@H](O[C@@H]2O[C@H](CO)[C@H](O)[C@@H]3OC4(O[C@H]23)O[C@H]([C@@H](N)CO)[C@H](O)[C@H](O)[C@H]4O)[C@@H]1O (stereo partly shown) [Hygromycin B],,,,16 μg of antimicrobial agent/mL of buffer,,"MIC, E. coli, MHB− (E. coli; [3]): 32 μg of antimicrobial agent/mL of buffer; Fold, E. coli (E. coli; [4]): 2; MIC, S. aureus, MHB− (S. aureus; [3]): >128 μg of antimicrobial agent/mL of buffer; MIC, S. aureus, MHB+ (S. aureus; antibiotic agents, MHB in the presence of 25 mM sodium bicarbonate): 64 μg of antimicrobial agent/mL of buffer; Fold, S. aureus (S. aureus; [4]): 2"
NC[C@H]1O[C@H](O[C@H]2[C@H](O)[C@@H](O[C@H]3O[C@H](CO)[C@@H](O)[C@H](N)[C@H]3O)[C@H](N)C[C@@H]2N)[C@H](O)[C@@H](O)[C@@H]1O [Kanamycin],4,4,8,,,
C[C@H]1COc2c(N3CCN(C)CC3)c(F)cc3c(=O)c(C(=O)O)cn1c23 [Levofloxacin],0.0313,1,0.5,,,
CCC[C@@H]1C[C@@H](C(=O)N[C@@H]([C@H]2O[C@H](SC)[C@H](O)[C@@H](O)[C@H]2O)[C@@H](C)O)N(C)C1 [Lincomycin],,0.0625 μg of antimicrobial agent/mL of buffer,0.25,32 μg of antimicrobial agent/mL of buffer,> 128,
CC(=O)NC[C@H]1CN(c2ccc(N3CCOCC3)c(F)c2)C(=O)O1 [Linezolid],256,0.625,0.625,,,"effect of 25 mM sodium bicarbonate on antibacterial activity (E. coli): remained largely unchanged; effect of 25 mM sodium bicarbonate on antibacterial activity (S. aureus; S. aureus, result in words): remained largely unchanged"
CCn1cc(C(=O)O)c(=O)c2cc(F)c(N3CCNC(C)C3)c(F)c21 (stereo not shown) [Lomefloxacin],,8 μg of antimicrobial agent/mL of buffer,4,0.125 μg of antimicrobial agent/mL of buffer,0.5,
C/C(=C\C(=O)OCCCCCCCCC(=O)O)C[C@@H]1OC[C@H](C[C@@H]2O[C@H]2[C@@H](C)[C@H](C)O)[C@@H](O)[C@H]1O [Mupirocin],,2 μg of antimicrobial agent/mL of buffer,0.5,128 μg of antimicrobial agent/mL of buffer,128,
CC1CCc2c(N3CCC(O)CC3)c(F)cc3c(=O)c(C(=O)O)cn1c23 (stereo not shown) [Nadifloxacin],,0.5 μg of antimicrobial agent/mL of buffer,0.12,32 μg of antimicrobial agent/mL of buffer,8,
CCOc1ccc2ccccc2c1C(=O)N[C@@H]1C(=O)N2[C@@H]1SC(C)(C)[C@@H]2C(=O)O [Nafcillin],,1 μg of antimicrobial agent/mL of buffer,0.25,32 μg of antimicrobial agent/mL of buffer,16,
CCn1cc(C(=O)O)c(=O)c2ccc(C)nc21 [Nalidixic acid],2,32,> 8,,,effect of 25 mM sodium bicarbonate on antibacterial activity (E. coli): suppressed
CCn1cc(C(=O)O)c(=O)c2cc(F)c(N3CCNCC3)cc21 [Norfloxacin],0.125,1,0.5,,,
Cc1onc(-c2ccccc2)c1C(=O)N[C@@H]1C(=O)N2[C@@H]1SC(C)(C)[C@@H]2C(=O)O [Oxacillin],256,1,0.0625,,,
NC[C@@H]1O[C@H](O[C@H]2[C@@H](O)[C@H](O[C@@H]3[C@@H](O)[C@H](N)C[C@H](N)[C@H]3O[C@H]3O[C@H](CO)[C@@H](O)[C@H](O)[C@H]3N)O[C@@H]2CO)[C@H](N)[C@@H](O)[C@@H]1O [Paromomycin],2,2,2,,,
CCN1CCN(C(=O)N[C@@H](C(=O)N[C@@H]2C(=O)N3[C@@H]2SC(C)(C)[C@@H]3C(=O)O)c2ccccc2)C(=O)C1=O [Piperacillin],2,1,0.25,,,
C=C[C@]1(C)C[C@@H](OC(=O)CO)[C@]2(C)[C@H](C)CC[C@]3(CCC(=O)[C@H]32)[C@@H](C)[C@@H]1O [Pleuromutilin],,1 μg of antimicrobial agent/mL of buffer,1,>128 μg of antimicrobial agent/mL of buffer,> 128,
CC(C)C[C@H](NC(=O)[C@H](CCCNC(=N)N)NC(=O)CNC(=O)CNC(=O)[C@@H](N)CCCNC(=N)N)C(=O)N[C@H]1CSSC[C@@H](C(=O)N[C@H](C(=O)NCC(=O)N[C@@H](CCCNC(=N)N)C(N)=O)C(C)C)NC(=O)[C@H](C(C)C)NC(=O)[C@@H]2CSSC[C@H](NC(=O)[C@H](Cc3ccc(O)cc3)NC1=O)C(=O)N[C@@H](CCCNC(=N)N)C(=O)N[C@@H](CCCNC(=N)N)C(=O)N[C@@H](CCCNC(=N)N)C(=O)N[C@@H](Cc1ccccc1)C(=O)N2 [Protegrin],,,,,,"enhancement of antimicrobial activity in the presence of bicarbonate (E. coli): 8 fold; enhancement of antimicrobial activity in the presence of bicarbonate (S. aureus; S. aureus, 25 mM sodium bicarbonate): 8 fold"
CO[C@H]1/C=C/O[C@@]2(C)Oc3c(C)c(O)c4c(O)c(c(/C=N/N5CCN(C)CC5)c(O)c4c3C2=O)NC(=O)/C(C)=C\C=C\[C@H](C)[C@H](O)[C@@H](C)[C@@H](O)[C@@H](C)[C@H](OC(C)=O)[C@@H]1C [Rifampicin],32,0.031,0.0078,,,
C[C@@H]1CN(c2c(F)c(N)c3c(=O)c(C(=O)O)cn(C4CC4)c3c2F)C[C@H](C)N1 [Sparfloxacin],,0.25 μg of antimicrobial agent/mL of buffer,0.125,32 μg of antimicrobial agent/mL of buffer,16,
CN[C@@H]1[C@H](O)[C@H](NC)[C@H]2O[C@@]3(O)C(=O)C[C@@H](C)O[C@H]3O[C@@H]2[C@H]1O [Spectinomycin],16,8,64,,,
